Among the data in US11440909B2, “10H-phenothiazine ferroptosis inhibitor as well as the preparative method and the use thereof” (CHENGDU HENGHAO INVESTMENT CO. LIMITED, priority 2018, dated 2022) are EC50 values, retold here.

Like-named read-outs stand apart in the source and are kept apart here.

A word on the EC50: it is the concentration giving half of the maximal effect.

The test has as its system fibrosarcoma cell line HT1080. The experiment in a line: Ferroptosis screening model (MTT method), Erastin-induced ferroptosis. It is filed as cell-based, human. To be noted: 72 h, average of three tests, read-out: EC50. The procedure, abridged: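 HT1080 cells adhered 24 h, then received compound plus Erastin ([…] final) for 72 h at 37 °C, 5% CO2, in triplicate. Viability by MTT with SDS solubilisation, absorbance at 570 nm; inhibition of ferroptosis fitted to give EC50.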

The mark [1] stands for this setting: Homo sapiens, HT-1080, 72 h, HT1080, ferroptosis inducer Erastin.
Setting [2] is: HT1080, ferroptosis inducer Erastin.

On to `C=C(c1cccc(C(C)C)c1)c1ccc2c(c1)Nc1ccccc1S2` [Compound B27, 2-(1-(3-isopropylphenyl)ethenyl)-10H-phenothiazine], for which the half-maximal effective concentration (EC50) under setting [1] is 38 nM.

Regarding `C=C(c1cccc(C(=O)OCC)c1)c1ccc2c(c1)Nc1ccccc1S2` [Compound B28, ethyl3-(1-(10H-phenothiazin-2-yl)ethenyl)benzoic acid], the concentration giving a half-maximal response (EC50) under setting [1] is 27 nM.

`C=C(c1cccc(-c2ccccc2)c1)c1ccc2c(c1)Nc1ccccc1S2` [Compound B29, 2-(1-([1,1′-diphenyl]-3-yl)ethenyl)-10H-phenothiazine]: the concentration for a half-maximal effect (EC50) under setting [1] is 41 nM.

For the compound `C=C(c1cccc(C(F)(F)F)c1)c1ccc2c(c1)Nc1ccccc1S2` [Compound B30, 2-(1-(3-(trifluoromethyl)phenyl)ethenyl)-10H-phenothiazine], the EC50 under setting [1] came out at 45 nM.

With `C=C(c1cccc(C(=O)OC)c1)c1ccc2c(c1)Nc1ccccc1S2` [Compound B31, methyl 3-(1-(10H-phenothiazin-2-yl)ethenyl)benzoic acid], the EC50 under setting [1] stood at 51 nM.

Consider `C=C(c1cccc(C#N)c1)c1ccc2c(c1)Nc1ccccc1S2` [Compound B32, 3-(1-(10H-phenothiazin-2-yl)ethenyl)benzonitrile], for which the EC50 under setting [1] was 89 nM.

Take `C=C(c1cccc(C(=O)c2ccccc2)c1)c1ccc2c(c1)Nc1ccccc1S2` [Compound B33, (3-(1-(10H-phenothiazin-2-yl)ethenyl)phenyl)benzophenone]: under setting [1], the EC50 is 111 nM.

With `C=C(c1cccc(C(F)F)c1)c1ccc2c(c1)Nc1ccccc1S2` [Compound B34, 2-(1-(3-(difluoromethyl)phenyl)ethenyl)-10H-phenothiazine], the EC50 under setting [1] amounted to 11 nM.

Consider `C=C(c1cccc(OCc2ccccc2)c1)c1ccc2c(c1)Nc1ccccc1S2` [Compound B35, 2-(1-(3-(benzyloxyl)phenyl)ethenyl)-10H-phenothiazine], for which, under setting [1], the 50% effective concentration (EC50) turned out to be 53 nM.

Turning to `C=C(c1cccc(N2CCOCC2)c1)c1ccc2c(c1)Nc1ccccc1S2` [Compound B36, 4-(3-(1-(10H-phenothiazin-2-yl)ethenyl)phenyl)morpholine], the EC50 under setting [1] was determined as 30 nM.

Turning to `C=C(c1ccc(C#N)c(C)c1)c1ccc2c(c1)Nc1ccccc1S2` [Compound B37, 4-(1-(10H-phenothiazin-2-yl)ethenyl)-2-methylbenzonitrile], the 50% effective concentration (EC50) under setting [1] came out at 14 nM.

With `C=C(c1ccc([N+](=O)[O-])c(C)c1)c1ccc2c(c1)Nc1ccccc1S2` [Compound B38, 2-(1-(3-methyl-4-nitrophenyl)ethenyl)-10H-phenothiazine], under setting [1], the EC50 is 35 nM.

As to `C=C(c1ccc2c(c1)Nc1ccccc1S2)c1ccc(OC)c(OC)c1` [Compound B39, 2-(1-(3,4-dimethoxylphenyl)ethenyl)-10H-phenothiazine], the EC50 under setting [1] turned out to be 23 nM.

Regarding `C=C(c1ccc(C#N)c(F)c1)c1ccc2c(c1)Nc1ccccc1S2` [Compound B40, 4-(1-(10H-phenothiazin-2-yl)ethenyl)-2-fluorobenzonitrile], under setting [1], the half-maximal effective concentration (EC50) came to 41 nM.

As to `C=C(c1cc(C(C)(C)C)cc(C(C)(C)C)c1)c1ccc2c(c1)Nc1ccccc1S2` [Compound B41, 2-(1-(3,5-di-t-butylphenyl)ethenyl)-10H-phenothiazine], the concentration giving a half-maximal response (EC50) under setting [1] amounted to 905 nM.

Turning to `C=C(c1ccc2c(c1)Nc1ccccc1S2)c1cc(OC)c(OC)c(OC)c1` [Compound B42, 2-(1-(3,4,5-trimethoxylphenyl)ethenyl)-10H-phenothiazine], the EC50 (Homo sapiens, HT-1080, HT1080, ferroptosis inducer Erastin) stood at 45 nM.

Consider `C=C(c1ccc(NC(C)=O)nc1)c1ccc2c(c1)Nc1ccccc1S2` [Compound B43, N-(5-(1-(10H-phenothiazin-2-yl)ethenyl)pyridin-2-yl)acetylamine], for which the EC50 under setting [1] amounted to 4 nM.

`C=C(c1ccc(N)nc1)c1ccc2c(c1)Nc1ccccc1S2` [Compound B44, 5-(1-(10H-phenothiazin-2-yl)ethenyl)pyridin-2-amine]: under setting [1], the EC50 turned out to be 11 nM.

For the compound `C=C(c1ccc(N2CCOCC2)nc1)c1ccc2c(c1)Nc1ccccc1S2` [Compound B45, 4-(5-(1-(10H-phenothiazin-2-yl)ethenyl)pyridin-2-yl)morpholine], the EC50 under setting [1] was 13 nM.

For the compound `C=C(c1ccc2c(c1)Nc1ccccc1S2)c1ccc(C(=O)Nc2ccc(CN3CCN(C)CC3)c(C(F)(F)F)c2)cc1C` [Compound B46, 4-(1-(10H-phenothiazin-2-yl)ethenyl)-3-methyl-N-(4-((4-methylpiperazin-1-yl)methyl)-3-(trifluoromethyl)phenyl)benzamide], the EC50 under setting [1] was 10 nM.

As for `C=C(c1ccc(C(=O)N2CCOCC2)cc1)c1ccc2c(c1)Nc1ccccc1S2` [Compound B47, (4-(1-(10H-phenothiazin-2-yl)ethenyl)phenyl)(morpholine)ketone], the EC50 under setting [2] is 24 nM.

`C=C(c1ccc(C(=O)N2CCN(C)CC2)cc1)c1ccc2c(c1)Nc1ccccc1S2` [Compound B48, (4-(1-(10H-phenothiazin-2-yl)ethenyl)phenyl)(4-methylpiperazin-1-yl)ketone]: under setting [1], the EC50 was determined as 13 nM.

On to `C=C(c1cnc(N2CCN(C)CC2)nc1)c1ccc2c(c1)Nc1ccccc1S2` [Compound B49, 2-(1-(2-(4-methylpiperazin-1-yl)pyrimidin-5-yl)ethenyl)-10H-phenothiazine], for which the EC50 under setting [1] came out at 2 nM.

On to `C=C(c1cnc(N2CCCN(C)CC2)nc1)c1ccc2c(c1)Nc1ccccc1S2` [Compound B50, 2-(1-(2-(4-methyl-1,4-homopiperazin-1-yl)pyrimidin-5-yl)ethenyl)-10H-phenothiazine], for which the EC50 under setting [1] came to 4 nM.

For the compound `C=C(c1cnc(N2CCOCC2)nc1)c1ccc2c(c1)Nc1ccccc1S2` [Compound B51, 4-(5-(1-(10H-phenothiazin-2-yl)ethenyl)pyrimidin-2-yl)morpholine], under setting [2], the EC50 is 10 nM.

Take `C=C(c1ccc(S(=O)(=O)NC2CCOCC2)cc1)c1ccc2c(c1)Nc1ccccc1S2` [Compound B52, 4-(1-(10H-phenothiazin-2-yl)ethenyl)-N-(tetrahydro-2H-pyran-4-yl)benzenesulfonamide]: the EC50 under setting [1] came out at 11 nM.

With `C=C(c1cccc(S(=O)(=O)NC(C)(C)C)c1)c1ccc2c(c1)Nc1ccccc1S2` [Compound B53, 3-(1-(10H-phenothiazin-2-yl)ethenyl)-N-(t-butyl)Benzenesulfonamide], under setting [1], the half-maximal effective concentration (EC50) worked out at 148 nM.

With `C=C(c1ccc(S(=O)(=O)N2CCCC2)cc1)c1ccc2c(c1)Nc1ccccc1S2` [Compound B54, 2-(1-(4-(pyrrolin-1-ylsulfonyl)phenyl)ethenyl)-10H-phenothiazine], the EC50 under setting [1] came out at 32 nM.

For the compound `C=C(c1cccc(S(=O)(=O)NC2CCOCC2)c1)c1ccc2c(c1)Nc1ccccc1S2` [Compound B55, 3-(1-(10H-phenothiazin-2-yl)ethenyl)-N-(tetrahydro-2H-pyran-4-yl)benzenesulfonamide], under setting [1], the EC50 came to 12 nM.

As for `C=C(c1ccc(S(=O)(=O)NCC2CCOCC2)cc1)c1ccc2c(c1)Nc1ccccc1S2` [Compound B56, 4-(1-(10H-phenothiazin-2-yl)ethenyl)-N-((tetrahydro-2H-pyran-4-yl)methyl)Benzenesulfonamide], the concentration giving a half-maximal response (EC50) under setting [1] was found to be 22 nM.

For the compound `C=C(c1ccc(S(=O)(=O)N2CCOCC2)cc1)c1ccc2c(c1)Nc1ccccc1S2` [Compound B57, 4-((4-(1-(10H-phenothiazin-2-yl)ethenyl)phenyl)sulfonyl)morpholine], the concentration for a half-maximal effect (EC50) under setting [1] worked out at 34 nM.
